One experiment deals with rats (Rattus norvegicus). In words: Rodenticidal effect in rats fed treated diet (Table I). Format: in vivo, Spraque-Dawley albino strain, male. Conditions: per rat. The source says: A quantity of a standard animal feed of the following composition: Ingredients Percent Lbs./Ton ______________________________________ Corn, Yellow, Ground 42.275 845.5 Oats, Ground 10.0 200.0 Wheat Middlings 10.0 200.0 Soybean Oil Meal, Solvent Extracted Dehulled, 50 % 18.0 360.0 Skimmed Milk, Dried 5.0 100.0 Corn, Distillers Dried Solubles 2.5 50.0 Alfalfa Meal, Dehydrated, 17 % 2.5 50.0 Whey, Whole Dried 1.0 20.0 Fish Meal with Solubles 4.0 80.0 Animal Fat, Beef Tallow 2.0 40.0 Dicalcium Phosphate, Feed Grade 0.5 10.0 Calcium Carbonate 1.0 20.0 Salt 0.3 6.0 Trace Mineral Premix AN-03 0.2 4.0 Vitamin Premix CK-1 0.5 10.0 Vitamin E Premix 0.1 2.0 Methionine Hydroxy Analog (HYDAN) 0.125 2.5 Total 100.00 2000.0 ______________________________________
was divided into two portions. To each portion, there was added an amount of 1-methoxy-6-chloro-2-heptafluoro-n-propyl-1H-imidazo(4,5-b)pyridine, so that one portion contained 800 ppm of the compound, and the other portion contained 200 ppm of the compound.
Other modified feeds were prepared as described above but containing, in lieu of the compound identified above, 1-methoxy-6-bromo-2-heptafluoro-n-propyl-1H-imidazo(4,5-b)pyridine, 6-chloro-2-pentafluoroethyl-1H-imidazo(4,5-)pyridine, or 1-methoxy-6-chloro-2-heptafluoroisopropyl-1H-imidazo(4,5-b)pyridine, in the same or other concentrations,
EXAMPLES 2-28 Representative compounds were evaluated for rodenticidal effect in rats (Rattus norvegicus, Spraque-Dawley albino strain, male, each weighing 50-60 grams). Each compound to be evaluated was formulated as described in Example 1. Control rats were maintained on the standard animal feed described in Example 1. Control rats and rats to be treated were randomly assigned. Each group contained 5 or 6 rats. Feeding of the respective diet was ad libitum. Consumption per rat per day was checked, except on weekend days, and the rats were weighed and usually necropsied at death or termination of the experiment (generally, day 10).
In the evaluation of several of the compounds, the rats were observed closely to determine the day of death. Death occurred on the day marked by "X"; where no "X" is marked, the rat was found dead on the morning following the last indicated feeding. For the remaining compounds, no such close observation was made, and the rat was found dead on the morning following the last indicated feeding. Generally, the rats were not observed or feed consumption determined on weekend days.

In experiment [1] the test system is whole blood clotting time. Kind of experiment: Prolongation of whole blood clotting time in female rats (Table II). Format: in vivo, Rattus norvegicus, Sprague-Dawley strain. Conditions: 0.06 % in diet. As to the method:
1-Hydroxy-6-chloro-2-pentafluoroethyl-1H-imidazo(4,5-b)-pyridine was evaluated for prolongation of clotting time. The experiment was conducted in female rats (Rattus norvegicus, Sprague-Dawley strain) using a standard laboratory diet. A group of four control rats was fed the unmodified diet and another group of four rats was fed a treated diet, the standard laboratory diet modified by the incorporation therein of 0.06 percent of the 1-hydroxy-6-chloro-2-pentafluoroethyl-1H-imidazo(4,5-b)pyridine.
On the sixth day of feeding, a blood sample was taken from each rat and was analyzed for whole blood clotting time. The analysis was carried out on a BBL Fibrometer Precision Coagulation Timer, produced by BBL Fibrometer, a Division of Becton, Dickinson and Co., Canada, Ltd.; at Mississauga, Ontario. Two analyses were made of each sample.

Experiment [2] relates to rat population (Rattus norwegius). In words: Field trial against a rat population. Format: in vivo. As to conditions: 100 ppm in feed. As to the method: A field trial was conducted to evaluate the efficacy of 1-methoxy-5,6-dichloro-2-heptafluoro-n-propyl-1H-imidazo(4,5-b)-pyridine. The trial was conducted in an area of waste ground covered by grass and brush and recently cut off, by construction activity, from a nearby abandoned stockyard. The trial area indicated the presence of a rat population; this was confirmed by supplying to the area a conventional pelleted hog feed. It was consumed steadily at the rate of 8 lbs./day, corresponding to a population of about 145 rats consuming an average of 25 g. of feed/day. After the conventional feed had been supplied for three weeks, the trial period began. The rat species was believed to be Rattus norwegius, and this was later confirmed upon recovery of the dead animals.
During the trial period, the conventional feed was replaced by an adequate supply of a modified feed, which was identical to the conventional feed except that it contained 100 ppm (0.01 percent) of 1-methoxy-5,6-dichloro-2-heptafluoro-n-propyl-1H-imidazo(4,5-b)pyridine.
Food consumption was estimated visually and was as follows, counting the initiation of the trial period as the first day: […]

For the next experiment, the system named is prothrombin time. In words: Prothrombin time in male rats (Tables III and IV). Format: in vivo, rats (Harlan albino strain). Conditions: group of 5 rats; for Deaths / Range of Prothrombin Time: five days. As to the method:
Representative compounds were evaluated for prothrombin time in standard laboratory male rats (Harlan albino strain) of weanling age. A standard laboratory animal diet was fed to one group of 5 rats to serve as a control; other groups of 5 rats received modified diets, each diet being the standard laboratory animal diet modified by the incorporation therein of 0.08 percent of the respective compound. Feeding was continued for five days, at which time a blood sample was taken from each rat and analyzed for prothrombin time. The analytical method was that of A. J. Quick, "The Determination of Prothrombin," 190 Am. J. Med. Sci. 501 (1935): and it was performed on the "Electra 600", a machine available from the Medical Laboratory Automation, Inc. The results are reported in Table III.
Additional evaluations of the effect of representative compounds of prothrombin time were conducted. The procedures were the same as those reported in Examples 30-33 except that the concentration of the respective compound was 0.02 percent.

Molecules are shown by their SMILES. “Also recorded” adds a separate entry of the source. Where only a bound is given, the exact number is not on record here.

For `COCOn1c(C(F)(F)F)nc2ncc(Cl)cc21` [1-(methoxymethoxy)-6-chloro-2-trifluoromethyl-1H-imidazo(4,5-b)pyridine], the Weight change result with rats (Rattus norvegicus) (700 ppm in diet) is “+13 grams”.

As for `C=CCOn1c(C(F)(F)C(F)F)nc2nc(Cl)c(Cl)cc21` [1-allyloxy-5,6-dichloro-2-(1,1,2,2-tetrafluoroethyl)-1H-imidazo(4,5-b)pyridine], in the experiment with rats (Rattus norvegicus) (100 ppm in diet), the Weight change came to 0 grams.

Regarding `O=C(C=Cc1ccccc1)On1c(C(F)(F)F)nc2ncc(Cl)cc21` [1-cinnamoyloxy-6-chloro-2-trifluoromethyl-1H-imidazo(4,5-b)pyridine], the Necropsy results in the experiment on rats (Rattus norvegicus) (1000 ppm in diet) is on record as “SH, IH”.

Take `On1c(C(F)(F)C(F)(F)F)nc2ncc(Cl)cc21` [1-hydroxy-6-chloro-2-pentafluoroethyl-1H-imidazo(4,5-b)pyridine]: in experiment [1] (per animal), the “Death during clotting time study” value is recorded as “died on day 5; also recorded: died on day 6”. The “Whole Blood Clotting Time” value in experiment [1] (sixth day of feeding, two analyses per sample) was over 600 s.

As for `CC(C)On1c(C(F)(F)F)nc2nc(Cl)c(Cl)cc21` [1-isopropoxy-5,6-dichloro-2-trifluoromethyl-1H-imidazo(4,5-b)pyridine], the Weight change in the experiment with rats (Rattus norvegicus) (200 ppm in diet) turned out to be 0 grams.

With `COn1c(C(F)(F)C(F)(F)C(F)(F)F)nc2nc(Cl)c(Cl)cc21` [1-methoxy-5,6-dichloro-2-heptafluoro-n-propyl-1H-imidazo(4,5-b)pyridine], in experiment [2], the Bait shyness result was “no bait shyness”, the “Eradication of rodents from the trial area” value is reported as “essentially complete eradication of rodents from the trial area” and the “First day rat corpses were found” value is 4 days. Also, in experiment [2] (31 of 40 corpses necropsied), the Necropsy of corpses entry is listed as “uniformly showed internal hemorrhage, generally of the intestines”. This molecule also gave a Corpses found in experiment [2] (total) of 40 corpses.

In the experiment on rats (Rattus norvegicus) (200 ppm in diet), `COn1c(C(F)(F)F)nc2nc(Cl)c(Cl)cc21` [1-methoxy-5,6-dichloro-2-trifluoromethyl-1H-imidazo(4,5-b)pyridine] had a Weight change of -12 grams.

Consider `COn1c(C(F)(F)F)nc2nc(Cl)ccc21` [1-methoxy-5-chloro-2-trifluoromethyl-1H-imidazo(4,5-b)pyridine], for which the Weight change with rats (Rattus norvegicus) (800 ppm in diet) is given as -11 grams.

As for `COn1c(C(F)(F)C(F)(F)C(F)(F)F)nc2ncc(Br)cc21` [1-methoxy-6-bromo-2-heptafluoro-n-propyl-1H-imidazo(4,5-b)pyridine], the Necropsy results with rats (Rattus norvegicus) (200 ppm in diet) is “LH, IH”.

As for `COn1c(C(F)(F)C(F)(F)C(F)(F)F)nc2ncc(Cl)cc21` [1-methoxy-6-chloro-2-heptafluoro-n-propyl-1H-imidazo(4,5-b)pyridine], the “Necropsy results (in words)” value in the experiment with rats (Rattus norvegicus) (200 ppm in diet) and with rats (Rattus norvegicus) (800 ppm in diet) was “bloody nose” throughout.

In the case of `COn1c(C(F)(C(F)(F)F)C(F)(F)F)nc2ncc(Cl)cc21` [1-methoxy-6-chloro-2-heptafluoroisopropyl-1H-imidazo(4,5-b)pyridine], the Necropsy results with rats (Rattus norvegicus) (200 ppm in diet) is on record as “TH, SH”; with rats (Rattus norvegicus) (300 ppm in diet), “AH, TH, SH; also recorded: TH, Test.H”.

Consider `COn1c(C(F)(F)C(F)(F)F)nc2ncc(Cl)cc21` [1-methoxy-6-chloro-2-pentafluoroethyl-1H-imidazo(4,5-b)pyridine], for which, in the experiment on prothrombin time (0.02 percent in diet), the Deaths result is reported as “none” and the “Range of Prothrombin Time” value lay in the range of 53.1 to 90.5 s. Besides, in the experiment with prothrombin time (0.08 percent in diet), the Deaths is 3, the “Range of Prothrombin Time” value fell in the range of 180 to 200 s and the “Day(s) of deaths” value was 170000 to 350000 s.

As to `CNC(=O)On1c(C(F)(F)F)nc2ncc(Cl)cc21` [1-methylcarbamoyloxy-6-chloro-2-trifluoromethyl-1H-imidazo(4,5-b)pyridine], in the experiment with prothrombin time (0.02 percent in diet), the Deaths entry was “none” and the “Range of Prothrombin Time” value was in the range of 17.6 to 22.1 s. For the same molecule, in the experiment on prothrombin time (0.08 percent in diet), the Deaths entry was “none” and the “Range of Prothrombin Time” value was 39.6 to 98.6 s.

With `CC(C)(C)C(=O)On1c(C(F)(F)F)nc2ncc(Cl)cc21` [1-pivaloyloxy-6-chloro-2-trifluoromethyl-1H-imidazo(4,5-b)pyridine], the Necropsy results was “TH, IH; also recorded: NH, IH” in the experiment with rats (Rattus norvegicus) (750 ppm in diet) and “NH, IH” in the experiment on rats (Rattus norvegicus) (1500 ppm in diet).

Turning to `FC(F)(F)c1nc2nc(Cl)c(Cl)cc2[nH]1` [5,6-dichloro-2-trifluoromethyl-1H-imidazo(4,5-b)pyridine], the Weight change result with rats (Rattus norvegicus) (50 ppm in diet) is listed as “+13 grams”.

Take `FC(F)C(F)(F)c1nc2ncc(Cl)cc2[nH]1` [6-chloro-2-(1,1,2,2-tetrafluoroethyl)-1H-imidazo(4,5-b)pyridine]: the Necropsy results in the experiment with rats (Rattus norvegicus) (150 ppm in diet) is on record as “TH, SIH; also recorded: NH, IH”.

For `FC(F)(F)c1nc2ncc(Cl)cc2[nH]1` [6-chloro-2-trifluoromethyl-1H-imidazo(4,5-b)pyridine], the Deaths entry in the experiment on prothrombin time (0.02 percent in diet) is recorded as “none”. Also, in the experiment on prothrombin time (0.08 percent in diet), the Deaths amounted to 5 and the “Day(s) of deaths” value is “three”.

The record behind these values is patent publication US3941882A, “Rodenticidal imidazo-pyridines” (priority 1974, dated 1976).
